Among the data in US8796244B2, “Imidazopyridine derivatives as inhibitors of receptor tyrosine kinases” (Astex Therapeutics Ltd, priority 2008, dated 2014) are IC50 and inhibition values, retold here.

Molecules are shown by their SMILES. Where a name gives a salt, the structure may show the parent alone. Read-outs that look alike come from different tables or passages of the source.

For experiment [1], the system named is LP-1 cell line (FGF-1/Heparin induced pERK). As to the kind of experiment: Cell-based pERK ELISA, LP-1 cells. The note with it: Homo sapiens, LP-1, read-out: LP-1 pERK ELISA (μM). On the technique in general: In an ELISA, binding on a coated surface is turned into a signal by an enzyme label.
Experiment [2] relates to parental wild-type Ba/F3 cells. The experiment can be described thus: Ba/F3 (WT) cell proliferation assay (Alamar Blue). Type of experiment: cell-based. The note with it: Mus musculus; for inhibition at 10 µM / inhibition at 3 µM: BaF3, read-out: BaF3 WT prolif, % inhibition.
[3] abbreviates: BaF3, 72 h, read-out: BaF3 WT prolif (μM).
The mark [4] stands for this setting: BaF3, 72 hours, Alamar Blue, read-out: BaF3 WT prolif.

`COCCNc1ccc(-c2ccn3c(-c4cccc(NC(=O)NCC(F)(F)F)c4)cnc3c2)nn1` [Example 80, 1-(3-{7-[6-(2-Methoxy-ethylamino)-pyridazin-3-yl]-imidazo[1,2-a]pyridin-3-yl}-phenyl)-3-(2,2,2-trifluoro-ethyl)-urea hydrochloride]: the IC50 in experiment [1] worked out at 0.039 µM. For the same molecule, the inhibition (usually the change of the read-out against control, counted positive when it falls) at 10 µM in experiment [2] was 0%.
`O=C(NCC(F)(F)F)Nc1cncc(-c2cnc3cc(-c4nncs4)ccn23)c1` [Example 24, 1-[5-(7-[1,3,4]Thiadiazol-2-ylimidazo[1,2-a]pyridin-3-yl)pyridin-3-yl]-3-(2,2,2-trifluoroethyl)urea hydrochloride]: the IC50 in experiment [1] stood at 0.57 µM. Besides, the inhibition at 10 µM in experiment [2] was found to be 2.2%.
Take `Cn1cc(C#Cc2ccn3c(-c4cccc(NC(=O)NCC(F)(F)F)c4)cnc3c2)cn1` [Example 56, 1-{3-[7-(1-Methyl-1H-pyrazol-4-ylethynyl)-imidazo[1,2-a]pyridin-3-yl]-phenyl}-3-(2,2,2-trifluoro-ethyl)-urea formate]: the IC50 in experiment [1] is 0.021 µM; in experiment [2] (setting [3]), 4.6 µM.
With `O=C(NCC(F)(F)F)Nc1cccc(-c2cnc3cc(-c4ccc(CCO)cc4)ccn23)c1` [Example 111, 1-(3-{7-[4-(2-Hydroxy-ethyl)-phenyl]-imidazo[1,2-a]pyridin-yl}-phenyl)-3-(2,2,2-trifluoro-ethyl)-urea formate], the figures for the IC50 in experiment [1] and in experiment [2] (setting [3]) were 0.016 µM and 0.18 µM, respectively.
Take `CC(O)C#Cc1ccn2c(-c3cccc(NC(=O)NCC(F)(F)F)c3)cnc2c1` (stereo not drawn) [Example 18, 1-{3-[7-(3-Hydroxybut-1-ynyl)imidazo[1,2-a]pyridin-3-yl]phenyl}-3-(2,2,2-trifluoroethyl)urea formate]: the IC50 in experiment [1] worked out at 0.095 µM; in experiment [2] (setting [3]), 1.4 µM.
With `NCCNc1nc(-c2ccn3c(-c4cccc(NC(=O)NCC(F)(F)F)c4)cnc3c2)ncc1F` [Example 182], the IC50 in experiment [1] stood at 2.5 µM; in experiment [2] (setting [4]), 10 µM.
In the case of `CN1CC(n2cc(-c3ccn4c(-c5cccc(NC(=O)NCC(F)(F)F)c5)cnc4c3)cn2)C1` [Example 41, 1-(3-{7-[1-(1-Methyl-azetidin-3-yl)-1H-pyrazol-4-yl]-imidazo[1,2-a]pyridin-3-yl}-phenyl)-3-(2,2,2-trifluoro-ethyl)-urea formate], the IC50 was 0.025 µM in experiment [1] and 2.8 µM in experiment [2] (setting [3]).
In the case of `O=C(NCC(F)(F)F)Nc1cncc(-c2cnc3cc(-c4cnn(C5CCNCC5)c4)ccn23)c1` [Example 152, 1-{5-[7-(1-Piperidin-4-yl-1H-pyrazol-4-yl)-imidazo[1,2-a]pyridin-3-yl]-pyridin-3-yl}-3-(2,2,2-trifluoro-ethyl)-urea], in experiment [1], the IC50 is 3.3 µM. In experiment [2], the inhibition at 10 µM was 10%.
Take `Cn1cncc1C#Cc1ccn2c(-c3cc(NC(=O)NCC(F)(F)F)ccc3F)cnc2c1` [Compound 327]: in experiment [1], the IC50 turned out to be 0.31 µM. Further, in experiment [2], the inhibition at 10 µM came out at 30%.
Regarding `CN1CCN(c2ccc(-c3ccn4c(-c5cccc(NC(=O)NCC(F)(F)F)c5)cnc4c3)nn2)CC1` [Example 12, 1-(3-{7-[6-(4-Methylpiperazin-1-yl)pyridazin-3-yl]imidazo[1,2-a]pyridin-3-yl}phenyl)-3-(2,2,2-trifluoroethyl)urea], the values for the IC50 in experiment [1] and in experiment [2] (setting [4]) were 0.041 µM and 3.7 µM, respectively.
On to `COc1cc(OC)nc(-c2ccn3c(-c4cccc(NC(=O)NCC(F)(F)F)c4)cnc3c2)n1` [Example 48, 1-{3-[7-(4,6-Dimethoxy-pyrimidin-2-yl)-imidazo[1,2-a]pyridin-3-yl]-phenyl}-3-(2,2,2-trifluoro-ethyl)-urea hydrochloride], for which, in experiment [1], the IC50 amounted to 0.13 µM. Moreover, the inhibition at 10 µM in experiment [2] was determined as 0%.
`O=C(NCC(F)(F)F)Nc1cccc(-c2cnc3cc(-c4ccc(Cl)nn4)ccn23)c1` [Example 33, 1-{3-[7-(6-Chloropyridazin-3-yl)-imidazo[1,2-a]pyridin-3-yl]phenyl}-3-(2,2,2-trifluoroethyl)urea]: the IC50 in experiment [1] amounted to 0.057 µM; in experiment [2] (setting [4]), 0.32 µM.
As for `Nc1cnc(-c2ccn3c(-c4cccc(NC(=O)NCC(F)(F)F)c4)cnc3c2)cn1` [Example 85, 1-{3-[7-(5-Amino-pyrazin-2-yl)-imidazo[1,2-a]pyridin-3-yl]-phenyl}-3-(2,2,2-trifluoro-ethyl)-urea formate], the IC50 in experiment [1] is 0.065 µM; in experiment [2] (setting [3]), 0.17 µM.
Regarding `O=C(NCC(F)(F)F)Nc1cccc(-c2cnc3cc(-c4cnn(C5CNC5)c4)ccn23)c1` [Example 37, 1-{3-[7-(1-Azetidin-3-yl-1H-pyrazol-4-yl)-imidazo[1,2-a]pyridin-3-yl]phenyl}-3-(2,2,2-trifluoroethyl)urea], in experiment [1], the IC50 was determined as 0.29 µM. In experiment [2], the inhibition at 10 µM turned out to be 3.3%.
For the molecule `NC1CCN(c2ccc(-c3ccn4c(-c5cccc(NC(=O)NCC(F)(F)F)c5)cnc4c3)nn2)CC1` [Example 75, 1-(3-{7-[6-(4-Amino-piperidin-1-yl)-pyridazin-3-yl]-imidazo[1,2-a]pyridin-3-yl}-phenyl)-3-(2,2,2-trifluoro-ethyl)-urea tris-trifluoroacetate], in experiment [1], the IC50 is 0.63 µM. The inhibition at 10 µM in experiment [2] is 32%.
The matching figures for `O=C(NCC(F)(F)F)Nc1cccc(-c2cnc3cc(-c4ccc(=O)n(CCO)n4)ccn23)c1` [Example 126, 1-(3-{7-[1-(2-Hydroxy-ethyl)-6-oxo-1,6-dihydro-pyridazin-3-yl]-imidazol[1,2-a]pyridin-3-yl}-phenyl)-3-(2,2,2-trifluoro-ethyl)-urea]: 0.98 µM and 3.7%.
As for `O=C(NCC(F)(F)F)Nc1cccc(-c2cnc3cc(-c4nnc(C(F)(F)F)s4)ccn23)c1` [Example 17, 1-(2,2,2-Trifluoroethyl)-3-{3-[7-(5-trifluoromethyl[1,3,4]thiadiazol-2-yl)-imidazo[1,2-a]pyridin-3-yl]phenyl}urea], the IC50 in experiment [1] is 0.044 µM; in experiment [2] (setting [4]), 0.056 µM.
For the molecule `O=C(NCC(F)(F)F)Nc1cccc(-c2cnc3cc(-c4nccnn4)ccn23)c1` [Example 141, 1-[3-(7-[1,2,4]-Triazin-3-yl-imidazo[1,2-a]pyridin-3-yl)-phenyl]-3-(2,2,2-trifluoro-ethyl)-urea], the IC50 is 0.11 µM in experiment [1] and 0.042 µM in experiment [2] (setting [4]).
For `CNc1ccc(-c2ccn3c(-c4cccc(NC(=O)NCC(F)(F)F)c4)cnc3c2)nn1` [Example 132, 1-{3-[7-(6-Methylamino-pyridazin-3-yl)-imidazo[1,2-a]pyridin-3-yl]-phenyl}-3-(2,2,2-trifluoro-ethyl)-urea], in experiment [1], the IC50 is 0.172 µM. Moreover, the inhibition at 10 µM in experiment [2] came to 22.9%.
For the molecule `O=C(NCC(F)(F)F)Nc1cccc(-c2cnc3cc(-c4ncccn4)ccn23)c1` [Example 114, 1-{3-[7-(Pyrimidin-2-yl)-imidazo[1,2-a]pyridin-3-yl]-phenyl}-3-(2,2,2-trifluoro-ethyl)-urea hydrochloride], the IC50 in experiment [1] worked out at 0.047 µM; in experiment [2] (setting [3]), 0.65 µM.
As to `Cc1cncc(-c2ccn3c(-c4cccc(NC(=O)NCC(F)(F)F)c4)cnc3c2)n1` [Example 100, 1-{3-[7-(6-Methyl-pyrazin-2-yl)-imidazo[1,2-a]pyridin-3-yl]-phenyl}-3-(2,2,2-trifluoro-ethyl)-urea], the figures for the IC50 in experiment [1] and in experiment [2] (setting [4]) were 0.09 µM and 0.97 µM, respectively.
Consider `O=C(NCC(F)(F)F)Nc1cccc(-c2cnc3cc(-c4ncc(F)c(NCCO)n4)ccn23)c1` [Example 164], for which the IC50 was found to be 0.26 µM in experiment [1] and 4.2 µM in experiment [2] (setting [4]).
Turning to `Nc1nc(-c2ccn3c(-c4cncc(NC(=O)NCC(F)(F)F)c4)cnc3c2)ncc1F` [Example 168], the IC50 in experiment [1] worked out at 0.43 µM. In experiment [2], the inhibition at 10 µM worked out at 0%.
Turning to `NC(=O)c1ccnc(-c2ccn3c(-c4cccc(NC(=O)NCC(F)(F)F)c4)cnc3c2)n1` [Example 185], the IC50 in experiment [1] worked out at 0.14 µM. Moreover, the inhibition at 3 µM in experiment [2] was 0%.
Take `COc1cncc(-c2ccn3c(-c4cccc(NC(=O)NCC(F)(F)F)c4)cnc3c2)n1` [Example 90, 1-{3-[7-(6-Methoxy-pyrazin-2-yl)-imidazo[1,2-a]pyridin-3-yl]-phenyl}-3-(2,2,2-trifluoro-ethyl)-urea formate]: the IC50 amounted to 0.092 µM in experiment [1] and 0.76 µM in experiment [2] (setting [3]).
Turning to `CN(C)CCCOc1ccc(-c2ccn3c(-c4cccc(NC(=O)NCC(F)(F)F)c4)cnc3c2)cn1` [Example 144, 1-(3-{7-[6-(3-Dimethylamino-propoxy)-pyridin-3-yl]-imidazo[1,2-a]pyridin-3-yl}-phenyl)-3-(2,2,2-trifluoro-ethyl)-urea], the IC50 in experiment [1] is 0.13 µM; in experiment [2] (setting [4]) it was 3.6 µM.
As to `Cn1cncc1C#Cc1ccn2c(-c3cccc(NC(=O)NCC(F)(F)F)c3)cnc2c1` [Example 13B, 1-{3-[7-(3-Methyl-3H-imidazol-4-ylethynyl)-imidazo[1,2-a]pyridin-3-yl]-phenyl}-3-(2,2,2-trifluoro-ethyl)-urea dihydrochloride], in experiment [1], the IC50 turned out to be 0.031 µM. Besides, the inhibition at 10 µM in experiment [2] was 44%.
In the case of `O=C(NCC(F)(F)F)Nc1cccc(-c2cnc3cc(-c4cncnc4)ccn23)c1` [Example 42, 1-[3-(7-Pyrimidin-5-yl-imidazo[1,2-a]pyridin-3-yl)-phenyl]-3-(2,2,2-trifluoro-ethyl)-urea hydrochloride], the IC50 came out at 0.27 µM in experiment [1] and 1.1 µM in experiment [2] (setting [3]).
For the molecule `CCNC(=O)Nc1cccc(-c2cnc3cc(-c4ncc(F)c(N)n4)ccn23)c1` [Example 163], in experiment [1], the IC50 was 0.22 µM. In experiment [2], the inhibition at 3 µM was found to be 38% and the inhibition at 10 µM was 11%.
On to `CN1CCN(c2ncc(-c3ccn4c(-c5cccc(NC(=O)NCC(F)(F)F)c5)cnc4c3)cn2)CC1` [Example 79, 1-(3-{7-[2-(4-Methyl-piperazin-1-yl)-pyrimidin-5-yl]-imidazo[1,2-a]pyridin-3-yl}-phenyl)-3-(2,2,2-trifluoro-ethyl)-urea bis-formate], for which the values for the IC50 in experiment [1] and in experiment [2] (setting [3]) were 0.035 µM and 0.4 µM, respectively.
For `NC(=O)Nc1cccc(-c2cnc3cc(-c4ncccn4)ccn23)c1` [Compound 337], the IC50 in experiment [1] came out at 1.5 µM. The inhibition at 10 µM in experiment [2] was 23%.
